These results are taken from ChEMBL document CHEMBL1201862, “PubChem BioAssay data set” (2004).

The target of assay [1] is T1, Insulin-degrading enzyme (Homo sapiens, UniProt P14735).
T1 sequence (P14735 whole entry): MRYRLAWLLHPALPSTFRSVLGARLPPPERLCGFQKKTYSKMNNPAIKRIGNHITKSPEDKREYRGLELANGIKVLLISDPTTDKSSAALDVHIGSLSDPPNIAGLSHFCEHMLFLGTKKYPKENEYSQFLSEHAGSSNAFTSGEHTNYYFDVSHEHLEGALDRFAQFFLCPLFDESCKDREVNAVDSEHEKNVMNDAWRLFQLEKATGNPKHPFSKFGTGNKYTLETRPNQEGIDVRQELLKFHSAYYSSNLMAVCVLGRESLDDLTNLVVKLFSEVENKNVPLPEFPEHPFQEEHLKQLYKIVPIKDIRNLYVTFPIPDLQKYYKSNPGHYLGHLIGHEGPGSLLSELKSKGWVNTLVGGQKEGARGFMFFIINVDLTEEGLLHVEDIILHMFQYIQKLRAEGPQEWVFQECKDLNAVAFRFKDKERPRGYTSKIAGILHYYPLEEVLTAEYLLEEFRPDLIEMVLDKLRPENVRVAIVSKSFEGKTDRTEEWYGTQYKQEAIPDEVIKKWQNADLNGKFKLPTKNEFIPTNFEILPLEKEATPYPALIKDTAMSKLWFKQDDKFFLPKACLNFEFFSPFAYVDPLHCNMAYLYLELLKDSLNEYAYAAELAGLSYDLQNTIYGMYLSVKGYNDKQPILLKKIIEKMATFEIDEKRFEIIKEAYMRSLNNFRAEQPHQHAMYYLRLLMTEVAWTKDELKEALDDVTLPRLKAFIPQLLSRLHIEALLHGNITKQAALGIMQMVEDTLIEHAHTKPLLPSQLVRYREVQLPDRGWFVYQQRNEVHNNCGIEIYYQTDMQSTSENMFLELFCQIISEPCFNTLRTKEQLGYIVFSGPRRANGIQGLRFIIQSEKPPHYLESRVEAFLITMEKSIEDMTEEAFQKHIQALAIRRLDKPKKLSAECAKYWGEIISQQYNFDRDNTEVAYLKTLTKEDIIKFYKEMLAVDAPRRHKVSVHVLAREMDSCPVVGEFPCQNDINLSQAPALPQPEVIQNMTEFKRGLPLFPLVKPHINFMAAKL
In words: cellular IDE activation of Abeta substrate cleavage – fluorescence polarization, HEK cells, dose response (AID 588439). Format: functional, cell-based.

Assay [2] has as its system HEK293. In words: optical interference in Abeta FP readout, dose response, artefact control for IDE activator project, biochemical, fluorescence polarization (AID 588442). The class given is functional, cell-based. As to conditions: Homo sapiens.
Assay [3] concerns HEK293. In words: membrane integrity loss in HEK cells – cell-based, fluorescence, cytotoxicity control for IDE activator project, dose response (AID 588440).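 Note: cytotoxicity by LDH release measuring loss of membrane integrity.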 Format: functional. As to conditions: Homo sapiens.
Assay [4] addresses T1, Insulin-degrading enzyme. Description: recombinant IDE activation, cell-free – biochemical, fluorescence polarization, counter-screen for IDE activator project, dose response (AID 588681). In general terms: In fluorescence polarisation assays a small probe gives low polarisation when free and higher when bound to something large.
Assay [5] can be described thus: Vero cell cytotoxicity, cytotoxicity control for M. tuberculosis inhibitor project, purified and synthesized samples, set 3 (AID 504684). The note with it: […]. Format: functional.
The nature of assay [6]: THP-1 cell cytotoxicity, dose response, cytotoxicity control, set 3 (AID 504852). The class given is functional. As to conditions: Mycobacterium tuberculosis.
Assay [7] concerns the target DNA dC->dU-editing enzyme APOBEC-3A (Homo sapiens, UniProt P31941). In words: SAR analysis of small molecule inhibitors of APOBEC3A DNA Deaminase via a fluorescence-based single-stranded DNA deaminase assay. The class given is functional. The note with it: read-out: IC50_Mean.
Assay [8] addresses DNA dC->dU-editing enzyme APOBEC-3G (Homo sapiens, UniProt Q9HC16). Description: inhibition of APOBEC3G ssDNA deamination – biochemical, fluorescence, single-stranded DNA substrate, SAR follow-up (AID 602136). As to conditions: read-out: IC50_Mean. The class given is functional.
The nature of assay [9]: SAR analysis of small molecule inhibitors of Apaf-1 using a LZ-Caspase-9/Caspase-3 Fluorescent Selectivity assay - Set 2. Format: functional. As to conditions: read-out: IC50_Mean.
Assay [10] addresses T2, Apoptotic protease-activating factor 1 (Homo sapiens, UniProt O14727).
T2 sequence (O14727 whole entry): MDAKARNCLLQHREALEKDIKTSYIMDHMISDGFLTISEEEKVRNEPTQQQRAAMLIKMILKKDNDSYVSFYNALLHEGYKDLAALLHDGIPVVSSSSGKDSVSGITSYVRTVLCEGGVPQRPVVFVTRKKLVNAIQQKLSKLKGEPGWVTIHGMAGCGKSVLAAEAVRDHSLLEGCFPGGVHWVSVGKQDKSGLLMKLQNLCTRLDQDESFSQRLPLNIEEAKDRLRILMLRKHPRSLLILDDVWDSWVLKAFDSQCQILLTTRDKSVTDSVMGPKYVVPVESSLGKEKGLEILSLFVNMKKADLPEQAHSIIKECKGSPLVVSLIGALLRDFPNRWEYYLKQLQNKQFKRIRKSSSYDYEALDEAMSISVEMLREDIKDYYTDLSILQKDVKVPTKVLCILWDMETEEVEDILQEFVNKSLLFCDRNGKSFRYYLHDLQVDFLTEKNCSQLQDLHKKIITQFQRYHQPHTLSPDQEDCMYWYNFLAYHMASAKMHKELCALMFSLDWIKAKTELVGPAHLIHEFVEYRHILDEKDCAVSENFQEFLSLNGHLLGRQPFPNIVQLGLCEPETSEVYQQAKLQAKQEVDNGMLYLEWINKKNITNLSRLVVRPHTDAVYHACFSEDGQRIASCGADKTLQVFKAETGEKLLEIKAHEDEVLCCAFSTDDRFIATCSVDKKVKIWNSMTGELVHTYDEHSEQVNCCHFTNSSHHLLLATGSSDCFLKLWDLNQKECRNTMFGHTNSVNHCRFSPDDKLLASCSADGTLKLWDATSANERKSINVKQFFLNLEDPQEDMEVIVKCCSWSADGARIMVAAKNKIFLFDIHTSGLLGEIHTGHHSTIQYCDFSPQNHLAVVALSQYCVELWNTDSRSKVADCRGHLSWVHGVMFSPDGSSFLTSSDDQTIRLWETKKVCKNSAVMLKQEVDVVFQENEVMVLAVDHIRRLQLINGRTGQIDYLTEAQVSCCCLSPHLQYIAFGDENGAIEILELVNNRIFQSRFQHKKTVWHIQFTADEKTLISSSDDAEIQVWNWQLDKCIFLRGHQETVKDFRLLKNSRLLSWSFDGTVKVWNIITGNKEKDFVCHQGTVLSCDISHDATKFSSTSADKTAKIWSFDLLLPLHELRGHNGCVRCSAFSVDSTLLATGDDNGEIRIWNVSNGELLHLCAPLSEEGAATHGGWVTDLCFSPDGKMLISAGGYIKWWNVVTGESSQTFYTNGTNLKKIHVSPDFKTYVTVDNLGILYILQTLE
Description: SAR analysis of small molecule Inhibitors of Apaf-1 in a Fluorescent assay - set 2. Format: functional. As to conditions: read-out: IC50_Mean.

The target in assay [11] is Dual specificity mitogen-activated protein kinase kinase 1 (Homo sapiens, UniProt Q02750). In words: Navigating the Kinome. Panel member name: MAP2K1. Format: functional.
Sequence of Dual specificity mitogen-activated protein kinase kinase 1 (Q02750 whole entry): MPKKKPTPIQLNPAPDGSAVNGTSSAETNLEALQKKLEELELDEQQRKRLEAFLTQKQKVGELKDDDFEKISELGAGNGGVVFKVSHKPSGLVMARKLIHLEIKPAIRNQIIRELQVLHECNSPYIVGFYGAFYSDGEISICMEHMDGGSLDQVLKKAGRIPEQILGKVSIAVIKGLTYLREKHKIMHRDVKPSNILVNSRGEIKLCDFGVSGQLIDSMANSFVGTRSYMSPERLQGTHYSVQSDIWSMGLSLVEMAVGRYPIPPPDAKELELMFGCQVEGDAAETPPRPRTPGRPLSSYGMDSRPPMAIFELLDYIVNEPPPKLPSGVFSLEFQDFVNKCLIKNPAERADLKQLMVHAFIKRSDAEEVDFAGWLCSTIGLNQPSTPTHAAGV
In assay [12] the target is Serine/threonine-protein kinase Chk1 (Homo sapiens, UniProt O14757). Format: functional.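 Note: measured as one member of a kinome-wide kinase profiling panel.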
Sequence of Serine/threonine-protein kinase Chk1 (O14757 whole entry): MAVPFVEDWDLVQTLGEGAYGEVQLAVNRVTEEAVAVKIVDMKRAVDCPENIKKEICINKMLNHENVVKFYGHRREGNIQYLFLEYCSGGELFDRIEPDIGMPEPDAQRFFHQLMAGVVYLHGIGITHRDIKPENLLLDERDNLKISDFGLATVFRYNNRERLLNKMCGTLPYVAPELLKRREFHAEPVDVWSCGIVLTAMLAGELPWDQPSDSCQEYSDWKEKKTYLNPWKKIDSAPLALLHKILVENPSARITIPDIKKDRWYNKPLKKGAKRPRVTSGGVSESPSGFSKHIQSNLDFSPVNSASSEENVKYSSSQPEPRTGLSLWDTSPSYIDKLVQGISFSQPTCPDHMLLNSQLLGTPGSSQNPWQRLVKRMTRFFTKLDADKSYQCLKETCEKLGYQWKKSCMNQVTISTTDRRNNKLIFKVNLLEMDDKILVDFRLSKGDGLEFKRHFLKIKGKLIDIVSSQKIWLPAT

Activity calls are given as the source filed them.

Sequence of DNA dC->dU-editing enzyme APOBEC-3A (P31941 whole entry): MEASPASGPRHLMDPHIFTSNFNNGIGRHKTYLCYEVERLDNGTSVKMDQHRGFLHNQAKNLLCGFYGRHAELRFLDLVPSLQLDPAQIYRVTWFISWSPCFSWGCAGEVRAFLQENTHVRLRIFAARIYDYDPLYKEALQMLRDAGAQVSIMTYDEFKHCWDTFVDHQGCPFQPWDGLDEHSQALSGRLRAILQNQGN
Sequence of DNA dC->dU-editing enzyme APOBEC-3G (Q9HC16 whole entry): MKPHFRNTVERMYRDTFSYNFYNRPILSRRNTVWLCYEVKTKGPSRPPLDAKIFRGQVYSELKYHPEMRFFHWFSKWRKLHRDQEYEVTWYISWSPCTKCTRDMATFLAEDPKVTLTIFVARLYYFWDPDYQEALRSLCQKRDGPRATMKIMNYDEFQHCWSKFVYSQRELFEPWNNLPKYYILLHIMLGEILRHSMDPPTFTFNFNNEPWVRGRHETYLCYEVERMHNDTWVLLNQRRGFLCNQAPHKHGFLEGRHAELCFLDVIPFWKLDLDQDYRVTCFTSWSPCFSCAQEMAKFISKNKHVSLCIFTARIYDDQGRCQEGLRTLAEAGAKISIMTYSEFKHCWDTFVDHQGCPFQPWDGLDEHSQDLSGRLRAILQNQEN

For `O=C(O)c1ccccc1NC(=O)C1CCN(S(=O)(=O)c2cccc3nsnc23)CC1`, the EC50 on Insulin-degrading enzyme [1] was > 18.2 µM (inactive); in the assay with HEK293 [2] it was 2.44 µM (active); on Insulin-degrading enzyme [4] it was > 54.7 µM (inactive). Further, the IC50 in the assay on HEK293 [3] is > 89.2 µM (inactive).
Turning to `COC(=O)c1ccc(CNc2c(N3CCCC3)c(=O)c2=O)cc1`, the CC50 in assay [5] and in assay [6] was > 100 µM (active) in each case.
For `CN1CC2=C(N=C1NCCCO)c1ccccc1CC21CCCCC1`, the IC50 in assay [7] and in [8] was > 99 µM (inactive) throughout.
As for `Cc1cc(C)c2c(c1)N(Cc1ccc(Cl)c(Cl)c1)C(=O)C2=O`, the IC50 in assay [9] is 20.1 µM (active); in [10], 42 µM (active).
For the compound `CN(C)Cc1ccc2c(c1)NC(=O)C1CCCN21` (configuration not stated), the Ki in assay [11] was 3.16 µM (active); in [12] it was 1.58 µM (active).

What is called EC50 is the midpoint of the concentration-response curve. The term CC50 denotes the concentration that lowers cell viability or growth by half. Broadly, the Ki is the equilibrium dissociation constant of an inhibitor or competing ligand from its target.
